Laboratory results: patent US7915402B2, “Antioxidant inflammation modulators: oleanolic acid derivatives with saturation in the C-ring” (Reata Pharmaceuticals, Inc., priority 2008, dated 2011)
Values after ≈ are worked out from the molar mass of the structure shown. Where two headings read alike, the source gives them in different places. Marks after values point to notes of the source that are not given here.

Assays:
[1] = Aqueous solubility determination (Multiscreen solubility filter plate, UV/vis); assay type: physicochemical; conditions: universal aqueous buffer, pH 7.4, aqueous buffer, kinetic from dmso stock, universal aqueous buffer pH 7.4, 90 min, room temperature
Procedure: Aqueous Solubility Determination. The following procedure was used to obtain the aqueous solubility results summarized in Example 8. Step 1. Determination of optimal UV/vis wavelengths and generation of standard curves for a compound of interest: • (1) For eight standard calibration curves (one plate), prepare 34 mL of 50:50 (v:v) universal buffer:acetonitrile in a 50 mL tube. • (2) Using a multichannel pipet, dispense (in μL) the buffer:acetonitrile in a deep well plate as follows:
• (6) Cover plate with lid and shake (200-300 rpm) at room temperature for 20 minutes. • (7) Mix all wells by pipetting up and down 10 times. • (8) Transfer 120 μL from each well to a UV transparent plate. Cover and shake for 3-5 minutes. Remove any bubbles in the wells using a pipet. • (9) Read from 220 nm to 500 nm at 10 nm increments on a spectrophotometer (e.g., SpectraMax®).
Step 2. Compound Solubility Testing Procedures Using the Millipore™ Multiscreen® Solubility Filter Plate.
Universal Aqueous Buffer: • (a) To prepare 500 mL of universal buffer, add the following: 250 mL Nanopure water; 1.36 mL (45 mM) ethanolamine; 3.08 g (45 mM) potassium dihydrogen phosphate; 2.21 g (45 mM) potassium acetate; thoroughly mix. • (b) Adjust pH to 7.4 with HCl and q.s. to 500 mL with 0.15 M KCl. • (c) Filter to remove particulates and reduce bacterial growth. • (d) Store at 4° C. in the dark.
Solubility Protocol: • (a) Add 285 μL of Universal Aqueous Buffer to desired wells of the Millipore™ Multiscreen® Solubility filter plate. • (b) Add 15 μL of 10 mM compound in DMSO to the appropriate wells. Add 15 μL of 100% DMSO only to 6 wells of the filter plate for blanks. • (c) Using a multichannel pipet, mix wells by pipetting up and down 10 times. Be careful not to touch the filters in the plate with the tips. • (d) Cover and gently shake (200-300 rpm) filter plate for 90 minutes at room temperature. • (e) Vacuum filter the aqueous solution from the Multiscreen® solubility filter plate into a polypropylene V-bottom plate. • (f) Transfer 60 μL of filtrate to a UV transparent plate (Greiner® UV-Star Analysis Plate). • (g) Add 60 μL of acetonitrile to each well and mix by pipetting up and down 10 times. • (h) Cover and gently shake for 3-5 minutes. Remove any bubbles with a pipet. • (i) Measure the absorbance of each well in the plate on the spectrophotometer (UV/vis) at the desired wavelength. For compounds in a plate with different absorbance peaks, set the spectrophotometer to read a spectrum (e.g., from 220 nm to 460 nm). • (j) Identify concentration using measured absorbance for each compound and the predetermined standard curve (see Step 1).

[2] = test system: IFNγ-induced NO production in RAW264.7 macrophages; test: Suppression of IFNγ-induced NO production (Griess reagent); assay type: cell-based, mouse; conditions: RAW264.7, 20 ng/ml IFNγ 24 h, 2 h pre-treatment
Procedure: (§1) FIGS. 1-8 and 32-34. Inhibition of NO Production. RAW264.7 macrophages were pre-treated with DMSO or drugs at various concentrations (nM) for 2 hours, then treated with 20 ng/ml IFNγ for 24 hours. NO concentration in media was determined using a Griess reagent system; cell viability was determined using WST-1 reagent.
(§2) Nitric Oxide production and cell viability. RAW264.7 macrophages were pre-treated with DMSO or drugs for 2 hours, then treated with recombinant mouse IFNγ (Sigma) for 24 hours. NO concentration in media was determined using the Griess reagent system (Promega). Cell viability was determined using WST-1 reagent (Roche).

[3] = test system: RAW264.7 macrophages; test: Cell viability, WST-1 reagent; assay type: cell-based, mouse; conditions: RAW264.7 (20 ng/ml IFNγ)
Procedure: as §1, §2

[4] = test system: HO-1; test: Nrf2 target gene induction, HO-1 mRNA (qPCR); assay type: cell-based, human; conditions: MDA-MB-435 cells
Procedure: (§3) FIGS. 17-20. Induction of HO-1. MDA-MB-435 human melanoma cells were treated with vehicle (DMSO) or the indicated compounds and concentrations for 16 hours. HO-1 mRNA levels were quantified using qPCR and were normalized relative to a DMSO-treated sample run in parallel. Values are averages of duplicate wells.
as §3, with “FIG. 21.” for “FIGS. 17-20.”, “HO-1, TrxR1 and γ-GCS.” for “HO-1.”, “HO-1, thioredoxin reductase-1 (TrxR1), and γ-glutamylcysteine synthetase (γ-GCS)” for “HO-1”
as §3, with “Nrf2 target gene induction.” for “FIGS. 17-20. Induction of HO-1.”, “HO-1, thioredoxin reductase-1 (TrxR1), γ-glutamylcysteine synthetase (γ-GCS), and ferritin heavy chain” for “HO-1”, “wells. Primer sequences are as follows.” for “wells.”

[5] = test system: thioredoxin reductase-1 (TrxR1); test: Nrf2 target gene induction, TrxR1 mRNA (qPCR); assay type: cell-based, human; conditions: MDA-MB-435 cells, 400 nM; percent of induction observed for 402
Procedure: as §3, with “FIG. 21.” for “FIGS. 17-20.”, “HO-1, TrxR1 and γ-GCS.” for “HO-1.”, “HO-1, thioredoxin reductase-1 (TrxR1), and γ-glutamylcysteine synthetase (γ-GCS)” for “HO-1”
as §3, with “FIG. 22.” for “FIGS. 17-20.”, “TrxR1.” for “HO-1.”, “Thioredoxin reductase-1 (TrxR1)” for “HO-1”, “wells. Compounds 401, 402-19 and 402-53 are comparison compounds (see Example 1).” for “wells.”
as §3, with “Nrf2 target gene induction.” for “FIGS. 17-20. Induction of HO-1.”, “HO-1, thioredoxin reductase-1 (TrxR1), γ-glutamylcysteine synthetase (γ-GCS), and ferritin heavy chain” for “HO-1”, “wells. Primer sequences are as follows.” for “wells.”

[6] = test system: γ-glutamylcysteine synthetase (γ-GCS); test: Nrf2 target gene induction, γ-GCS mRNA (qPCR); assay type: cell-based, human; conditions: MDA-MB-435 cells
Procedure: as §3, with “FIG. 21.” for “FIGS. 17-20.”, “HO-1, TrxR1 and γ-GCS.” for “HO-1.”, “HO-1, thioredoxin reductase-1 (TrxR1), and γ-glutamylcysteine synthetase (γ-GCS)” for “HO-1”
as §3, with “FIG. 23.” for “FIGS. 17-20.”, “γ-GCS.” for “HO-1.”, “γ-glutamylcysteine synthetase (γ-GCS)” for “HO-1”
as §3, with “Nrf2 target gene induction.” for “FIGS. 17-20. Induction of HO-1.”, “HO-1, thioredoxin reductase-1 (TrxR1), γ-glutamylcysteine synthetase (γ-GCS), and ferritin heavy chain” for “HO-1”, “wells. Primer sequences are as follows.” for “wells.”

[7] = test system: mice; conditions: sesame oil, N=4
[8] = test system: NQO1; test: Nrf2 target gene induction, NQO1; assay type: cell-based, human; conditions: MDA-MB-435 cells, 250 nM; fold induction above DMSO control
[9] = 400 nM, percent of induction observed for 402
[10] = 250 nM, fold induction above DMSO control

COC(=O)[C@]12CCC(C)(C)C[C@H]1[C@H]1C(=O)C=C3[C@@]4(C)C=C(C#N)C(=O)C(C)(C)[C@@H]4CC[C@@]3(C)[C@]1(C)CC2 [Compound 402, reference compound]
solubility at 90 min [1]: 1.46 µM (≈ 0.738 µg/mL)

CC1(C)CC[C@]2(C(=O)O)CC[C@]3(C)[C@H](C(=O)CC4[C@@]5(C)C=C(C#N)C(=O)C(C)(C)[C@@H]5CC[C@]43C)[C@@H]2C1 (stereo partly drawn) [Compound 63196, (4aS,6aR,6bR,8aR,12aR,14aR,14bS)-11-cyano-2,2,6a,6b,9,9,12a-heptamethyl-10,14-dioxo-1,2,3,4,4a,5,6,6a,6b,7,8,8a,9,10,12a,12b,13,14,14a,14b-icosahydropicene-4a-carboxylic acid]
IC50 ([2]; Mus musculus): ~75 nM
IC50 ([3]; Mus musculus): > 200 nM
HO-1 induction [4, 9]: 1%
TrxR1 induction [5]: 48%
γ-GCS induction [6, 9]: 26%
Number of Deaths ([7]; oral gavage QDx14, 10 mg/kg): 0
Number of Deaths ([7]; oral gavage QDx14, 50 mg/kg): 1*
Number of Deaths ([7]; oral gavage QDx14, 100 mg/kg): 0
Number of Deaths ([7]; oral gavage QDx14, 250 mg/kg): 1

CC1(C)CC[C@]2(CO)CC[C@]3(C)[C@H](C(=O)C[C@@H]4[C@@]5(C)C=C(C#N)C(=O)C(C)(C)[C@@H]5CC[C@]43C)[C@@H]2C1 [Compound 63202]
solubility at 90 min [1]: 1.89 µM (≈ 0.907 µg/mL)

CC1(C)CC[C@]2(C(N)=O)CC[C@]3(C)[C@H](C(=O)CC4[C@@]5(C)C=C(C#N)C(=O)C(C)(C)[C@@H]5CC[C@]43C)[C@@H]2C1 (stereo partly drawn) [Compound 63205, (4aS,6aR,6bR,8aR,12aR,14aR,14bS)-11-cyano-2,2,6a,6b,9,9,12a-heptamethyl-10,14-dioxo-1,2,3,4,4a,5,6,6a,6b,7,8,8a,9,10,12a,12b,13,14,14a,14b-icosahydropicene-4a-carboxamide]
IC50 ([2]; Mus musculus): ~25 nM
IC50 ([3]; Mus musculus): > 200 nM
HO-1 induction [4, 10]: 1.7 fold
γ-GCS induction [6, 10]: 3.5 fold
NQO1 induction [8]: 1.7 fold

CC1(C)CC[C@]2(C=O)CC[C@]3(C)[C@H](C(=O)CC4[C@@]5(C)C=C(C#N)C(=O)C(C)(C)[C@@H]5CC[C@]43C)[C@@H]2C1 (stereo partly drawn) [Compound 63206, (4aR,6aR,6bR,8aS,12aS,12bR,14bR)-8a-formyl-4,4,6a,6b,11,11,14b-heptamethyl-3,13-dioxo-3,4,4a,5,6,6a,6b,7,8,8a,9,10,11,12,12a,12b,13,14,14a,14b-icosahydropicene-2-carbonitrile]
IC50 ([2]; Mus musculus): ~10 nM
IC50 ([3]; Mus musculus): > 200 nM
HO-1 induction [4, 10]: 2.5 fold
γ-GCS induction [6, 10]: 4.5 fold
NQO1 induction [8]: 1.8 fold

COC(=O)[C@]12CCC(C)(C)C[C@H]1[C@H]1[C@H](O)C[C@@H]3[C@@]4(C)C=C(C#N)C(=O)C(C)(C)[C@@H]4CC[C@@]3(C)[C@]1(C)CC2 [Compound 63207]
IC50 [2]: ~50 nM
IC50 [3]: > 200 nM
HO-1 induction [4, 10]: 1.2 fold
γ-GCS induction [6, 10]: 3.1 fold
NQO1 induction [8]: 1.6 fold

CC1(C)CC[C@]2(CN)CC[C@]3(C)[C@H](C(=O)C[C@@H]4[C@@]5(C)C=C(C#N)C(=O)C(C)(C)[C@@H]5CC[C@]43C)[C@@H]2C1 [Compound 63214]
solubility at 90 min [1]: 112 µM (≈ 53.7 µg/mL)
